According to ChEMBL document CHEMBL3046067, “Synthesis of some novel 3,5-disubstituted 1,3,4-oxadiazole derivatives and anticancer activity on EAC animal model” (2011):
Activity calls are given as the source filed them. The rule behind the calls is not given here.

Assays:
Mus musculus [1] = assay: Antitumor activity against Mus musculus (mouse) EAC xenografted in Mus musculus Swiss albino (mouse) assessed as increase in median life span at 20 mg/kg, ip qd for 7 days relative to control; assay type: functional; settings: 168 h, route intraperitoneal
Mus musculus [2] = assay: Antitumor activity against Mus musculus (mouse) EAC xenografted in Mus musculus Swiss albino (mouse) assessed as increase in average life span at 20 mg/kg, ip qd for 7 days relative to control; assay type: functional; settings: 168 h, route intraperitoneal
[3] = Antitumor activity against Mus musculus (mouse) EAC xenografted in Mus musculus Swiss albino (mouse) assessed as non-viable cells at 20 mg/kg, ip qd for 7 days relative to control; assay type: functional, Ehrlich; settings: route intraperitoneal
[4] = Antitumor activity against Mus musculus (mouse) EAC xenografted in Mus musculus Swiss albino (mouse) assessed as viable cells at 20 mg/kg, ip qd for 7 days relative to control; assay type: functional, Ehrlich; settings: route intraperitoneal
[5] = Antitumor activity against Mus musculus (mouse) EAC xenografted in Mus musculus Swiss albino (mouse) assessed as non-viable cells at 50 mg/kg, ip qd for 7 days relative to control; assay type: functional, Ehrlich; settings: route intraperitoneal
[6] = Antitumor activity against Mus musculus (mouse) EAC xenografted in Mus musculus Swiss albino (mouse) assessed as viable cells at 50 mg/kg, ip qd for 7 days relative to control; assay type: functional, Ehrlich; settings: route intraperitoneal
[7] = Antitumor activity against Mus musculus (mouse) EAC xenografted in Mus musculus Swiss albino (mouse) assessed as inhibition of tumor formation at 50 mg/kg, ip qd for 7 days relative to control; assay type: functional; settings: Ehrlich, 168 h, route intraperitoneal
Mus musculus [8] = assay: Antitumor activity against Mus musculus (mouse) EAC xenografted in Mus musculus Swiss albino (mouse) assessed as increase in median life span at 50 mg/kg, ip qd for 7 days relative to control; assay type: functional; settings: 168 h, route intraperitoneal, read-out: Survival
Mus musculus [9] = assay: Antitumor activity against Mus musculus (mouse) EAC xenografted in Mus musculus Swiss albino (mouse) assessed as increase in average life span at 50 mg/kg, ip qd for 7 days relative to control; assay type: functional; settings: 168 h, route intraperitoneal, read-out: Survival
Mus musculus [10] = assay: Antitumor activity against Mus musculus (mouse) EAC xenografted in Mus musculus Swiss albino (mouse) assessed as restoration of hemoglobin level at 50 mg/kg, ip qd for 7 days; assay type: functional, organism-based; parameters: dose 50 mg/kg
Mus musculus [11] = assay: Antitumor activity against Mus musculus (mouse) EAC xenografted in Mus musculus Swiss albino (mouse) assessed as restoration of WBC count at 50 mg/kg, ip qd for 7 days; assay type: functional, organism-based; parameters: dose 50 mg/kg
Mus musculus [12] = assay: Antitumor activity against Mus musculus (mouse) EAC xenografted in Mus musculus Swiss albino (mouse) assessed as restoration of RBC count at 50 mg/kg, ip qd for 7 days; assay type: functional, organism-based; parameters: dose 50 mg/kg

| SMILES | survival at 20 mg/kg (Mus musculus [1]) [%] | survival at 20 mg/kg (Mus musculus [2]) [%] | Activity [3] [%] | Activity [4] [%] | Activity [5] [%] | Activity [6] [%] | inhibition in vivo at 50 mg/kg [7] [%] | Increase in median life span at 50 mg/kg (Mus musculus [8]) [%] | percent increase in average life span at 50 mg/kg (Mus musculus [9]) [%] | Activity (Mus musculus [10]) | Activity (Mus musculus [11]) | Activity (Mus musculus [12]) |
| --- | --- | --- | --- | --- | --- | --- | --- | --- | --- | --- | --- | --- |
| O=c1[nH]cc(F)c(=O)[nH]1 [FLUOROURACIL] | 90.8 | 92.7 | 85.17 | 14.83 | – | – | – | – | – | – | – | – |
| O=[N+]([O-])c1ccc(-c2nn(CNc3ccccc3)c(=S)o2)cc1 | – | – | – | – | 66.5 | 33.5 | 56.5 | 44.6 | 46.4 | Active | Active | Active |
| Cc1ccc(-c2nn(CNc3ccccn3)c(=S)o2)cc1 | – | – | – | – | 75.17 | 24.83 | 56.5 | 73.8 | 74 | Active | Active | Active |
| O=[N+]([O-])c1ccc(-c2nn(CNc3ccccn3)c(=S)o2)cc1 | – | – | – | – | 63.17 | 36.83 | 60.8 | 36.9 | 38.5 | Active | Active | Active |
| Oc1ccc(-c2nn(CNc3ccccn3)c(=S)o2)cc1 | – | – | – | – | 77.5 | 22.5 | 73.9 | 76.9 | 80.7 | Active | Active | Active |
| S=c1oc(-c2ccc(Cl)cc2Cl)nn1CNc1ccccn1 | – | – | – | – | 72.67 | 27.33 | 52.2 | 47.7 | 53.6 | Active | Active | Active |
